This passage reports EC50 and IC50 results from patent US9561228B2 (Celgene Avilomics Research, Inc., priority 2013, dated 2017).

Experiment [1] has as its system ERK1/2 phosphorylation of p90RSK in HCT116 cells. In words: Detection of total and phospho-RSK by MSD ELISA (HCT116). The class given is cell-based. As to conditions: Homo sapiens, HCT-116, read-out: ERK1/ERK2 PRSK HCT116 EC50. The procedure:
Detection of Total and Phospho-RSK by MSD ELISA (HCT116)
(§1) The protocol below describes an assay to measure the kinase activity of ERK1/2 to phosphorylate a substrate, p90RSK, in the presence or absence of a test compound.
HCT116 cells were grown in RPMI/10% FBS. Prior to the assay, 50,000 cells per well were plated in a 96 well flat bottom plate. Cells were cultured overnight in an incubator at 37° C.
Compound stocks were 10 mM in DMSO. A 1000× dilution was made in DMSO. 1 uL of the DMSO solution was transferred to 1 ml RPMI/10% FBS in a deep well plate. Media in the cell plate was discarded, and 100 uL of the compound-containing media was added. The preparation was incubated at 37° C. for 2 hrs.
Preparation of cell lysates are described below.
pRSK or total RSK MSD Assay
MSD plates: Blank MSD plates were coated with 30 uL capture antibody (BD 610226) at a final concentration of 1 ug/mL in PBS. Both pRSK and total RSK MSD assays used the same capture antibody at the same concentration. Antibody stock concentration was 250 ug/mL. Once antibody solution was added to MSD plate, the sides were tapped to be certain it was coated completely (visual inspection). It was then covered and placed at 4° C. overnight on a level surface.
Block MSD Plate: The coating antibody was removed and the plate was washed on a plate washer in MSD wash buffer. The last bit of wash solution was tapped out and 150 uL/well 3% BSA (MSD Blocker A) in MSD wash buffer was added. The preparation was placed on a shaker at room temperature for at least an hour.
Add samples: Media was removed from compound-treated cells and replaced with 55 uL/well MSD cell lysis buffer containing protease and phosphotase I & II inhibitors. The preparations was incubate on a shaker in a cold room for 30-45 min. The blocked MSD plate was washed on a plate washer, and the last bit of wash solution was tapped out. Next was added 50 uL (of the 55 uL) cell lysate in a well-well transfer. The preparation was covered and incubated on shaker at room temp for 2 hours. The lysate was then removed and washed on plate washer 3 times. The last bit of wash buffer was then tapped out and replaced with 25 uL/well detection antibody (described below).
For pRSK detection, a pRSK antibody stock of 21 ug/mL was prepared as follows: 1 ug/mL pRSK Ser380 antibody (Cell Signaling Technology, Cat. #9335)+1:750 anti-rabbit SulfoTag (from MSD, R32AB-1) in 1% BSA in MSD wash buffer.
(§2) For total RSK detection, a total RSK antibody stock of 200 ug/mL was prepared as follows: 1 ug/mL total RSK (Santa Cruz sc-231G) antibody+1:750 anti-goat SulfoTag (from MSD, R32AG-1) in 1% BSA in MSD wash buffer.
The plate was incubated for 1 hr at room temperature on a shaker, followed by three washes. The last bit of wash buffer was tapped out. Next, 150 uL/well 1×MSD Read buffer was added and the plate was analyzed by the MSD reader.

The test system of experiment [2] is ERK1/2 phosphorylation of p90RSK in HT29 cells. In words: pRSK MSD Assay in HT29 cells. The class given is cell-based. As to conditions: Homo sapiens, HT-29, read-out: ERK1/ERK2 PRSK MSD HT29 EC50. The essentials:
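Phospho-RSK level, read by electrochemiluminescence on RSK-antibody-coated MSD plates with a phospho-RSK/Sulfo-tag detection pair, reports cellular ERK1/2 activity. HT29 cells, kept overnight in 0.1% FBS medium, were exposed to compound for 120 min at 37° C before lysis.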

Experiment [3] deals with ERK1/2 phosphorylation of p90RSK in A375 cells. The experiment can be described thus: Detection of total and phosphor-RSK by MSD ELISA (A375). Format: cell-based. As to conditions: Homo sapiens, A-375, read-out: ERK1/ERK2 PRSK A375 EC50. As to the method: Detection of Total and Phosphor-RSK by MSD ELISA (A375)
as §1
A375 cells were grown in DMEM/10% FBS. Twenty four hours prior to the assay, 50,000 cells per well were plated in a 96 well flat bottom plate. Once cells attached to the plate, the medium was replaced with 100 ul of DMEM/0.1% FBS. Cells were cultured overnight in an incubator at 37° C.
Compound stock solutions of 10 mM in DMSO were prepared. 1000× dilutions were then prepared in DMSO. 1 uL of DMSO solution was then transferred to 1 ml DMEM/0.1% FBS in a deep well plate. Cell plate media was discarded, followed by addition of 100 uL of the compound-containing media. The preparation was incubated at 37° C. for 2 hrs.
Cell lysates were prepared as described below.
pRSK or Total RSK MSD Assay
MSD plates: Blank MSD plates were coated with 30 uL capture antibody (BD 610226) at a final concentration of 1 ug/mL in PBS. Both pRSK and total RSK MSD assays used the same capture antibody at the same concentration. Antibody stock concentration was 250 ug/mL. Once antibody solution was added to the MSD plate, the sides were tapped to be certain it was coated completely (visual inspection). It was then covered and placed at 4° C. overnight on a level surface.
Block MSD Plate: The coating antibody was removed and the plate was washed on a plate washer in MSD wash buffer. The last bit of wash solution was tapped out and 150 uL/well of 3% BSA in MSD wash buffer was added in. The preparation was placed on a shaker at room temperature for at least an hour.
Add samples: Media was removed from compound-treated cells and replaced with 55 uL/well MSD cell lysis buffer containing protease and phosphotase I & II inhibitors. The preparation was incubated on a shaker in a cold room for 30-45 min. The blocked MSD plate was washed a on plate washer, tapping out the last bit of wash solution, followed by addition of 50 uL (of the 55 ul) cell lysate in a well-well transfer. The preparation was covered and incubated on a shaker at room temp for 2 hours. The lysate was removed, washed on a plate washer 3 times, and the last bit of wash buffer was tapped out and replace with 25 uL/well detection antibody (described below).
For pRSK detection, a pRSK antibody stock of 21 ug/mL was prepared as follows: 1 ug/mL pRSK Ser380 antibody (Cell Signaling Technology, Cat. #9335)+1:750 anti-rabbit SulfoTag (Mesoscale Discovery, Cat. # R32AB-1) in 1% BSA in MSD wash buffer.
as §2
The plate was incubated for 1 hr at room temperature on a shaker, followed by three washings. The last bit of wash buffer was tapped out. 150 uL/well 1×MSD Read buffer was added and the plate was then analyzed.
A general note: In an ELISA, binding on a coated surface is turned into a signal by an enzyme label.

Experiment [4] deals with T1, MEK1 activated ERK1 (Homo sapiens, UniProt P27361).
T1 construct: purchased Millipore (Billerica, Mass.) 14-439-K
In words: Omnia continuous-read kinase assay for potency against MEK1 activated ERK1. Format: biochemical. As to conditions: ATP at KM, WT. The essentials:
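Apparent IC50 came from initial reaction slopes (RFU vs time) plotted against log inhibitor with a variable-slope fit. Reactions were started with ERK1 (4 nM final) added to 50 μM ATP, roughly at its appKM, and 10 μM Sox-conjugated ST17 peptide in 20 mM Tris pH 7.5, 5 mM MgCl2. Fluorescence was monitored every 71 seconds.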

T1 sequence (P27361 whole entry): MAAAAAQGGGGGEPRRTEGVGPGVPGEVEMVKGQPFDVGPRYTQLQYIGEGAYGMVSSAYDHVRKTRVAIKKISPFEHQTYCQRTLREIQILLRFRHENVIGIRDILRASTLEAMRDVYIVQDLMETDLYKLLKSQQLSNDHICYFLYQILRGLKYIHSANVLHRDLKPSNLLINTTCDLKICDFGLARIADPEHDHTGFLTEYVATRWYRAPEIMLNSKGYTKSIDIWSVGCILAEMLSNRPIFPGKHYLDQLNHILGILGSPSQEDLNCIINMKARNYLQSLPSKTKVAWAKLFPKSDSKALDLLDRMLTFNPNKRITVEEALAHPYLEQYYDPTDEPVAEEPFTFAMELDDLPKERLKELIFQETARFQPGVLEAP

Consider `C=CC(=O)Nc1cc(C)ccc1Nc1nc(N[C@H]2CCCN(S(=O)(=O)C=C)C2)ncc1C(F)(F)F` [Compound I-277, (S)—N-(5-Methyl-2-((5-(trifluoromethyl)-2-((1-(vinylsulfonyl)piperidin-3-yl)amino)pyrimidin-4-yl)amino)phenyl)acrylamide], for which the EC50 in experiment [1], in experiment [2] and in experiment [3] was > 1000 nM throughout.

For `C=CC(=O)Nc1ccccc1Nc1nc(Nc2cc(OC)nc(N3CCN(S(C)(=O)=O)CC3)c2)ncc1C(F)(F)F` [Compound I-290, N-(2-((2-((2-Methoxy-6-(4-(methylsulfonyl)piperazin-1-yl)pyridin-4-yl)amino)-5-(trifluoromethyl)pyrimidin-4-yl)amino)phenyl)acrylamide], the EC50 in experiment [1] is 501 to 999 nM; in experiment [2], > 1000 nM; in experiment [3], > 1000 nM.

For `C=CC(=O)Nc1ccccc1Nc1nc(Nc2ccnc(NC)c2)ncc1C(F)(F)F` [Compound I-321, N-(2-((2-((2-(methylamino)pyridin-4-yl)amino)-5-(trifluoromethyl)pyrimidin-4-yl)amino)phenyl)acrylamide], the EC50 in experiment [1], in experiment [2] and in experiment [3] was > 1000 nM in each case.

Turning to `C=CC(=O)Nc1ccccc1Nc1nc(Nc2c[nH]nc2C)ncc1C(F)(F)F` [Compound I-330, N-(2-((2-((3-methyl-1H-pyrazol-4-yl)amino)-5-(trifluoromethyl)pyrimidin-4-yl)amino)phenyl)acrylamide], the EC50 was > 1000 nM in experiment [1] and 101 to 500 nM in experiment [3].

As to `C=CC(=O)Nc1cc(C)ccc1Nc1nc(N[C@@H]2CCN(S(=O)(=O)C=C)C2)ncc1C(F)(F)F` [Compound I-280, (R)—N-(5-Methyl-2-((5-(trifluoromethyl)-2-((1-(vinylsulfonyl)pyrrolidin-3-yl)amino)pyrimidin-4-yl)amino)phenyl)acrylamide], the EC50 in experiment [1] and in experiment [3] was > 1000 nM in each case.

Regarding `C=CC(=O)Nc1cc(Cl)ccc1Nc1nc(Nc2cc(OC)ncc2C)ncc1C(F)(F)F` [Compound I-289, N-(5-Chloro-2-((2-((2-methoxy-5-methylpyridin-4-yl)amino)-5-(trifluoromethyl)pyrimidin-4-yl)amino)phenyl)acrylamide], the results for the EC50 in experiment [1], in experiment [2] and in experiment [3] were 101 to 500 nM, < 100 nM and < 100 nM, respectively.

On to `C=CC(=O)Nc1cc(OC(C)(C)C(N)=O)ccc1Nc1nc(Nc2cc(OC)ncc2C)ncc1C(F)(F)F` [Compound I-414, N-(5-((1-amino-2-methyl-1-oxopropan-2-yl)oxy)-2-((2-((2-methoxy-5-methylpyridin-4-yl)amino)-5-(trifluoromethyl)pyrimidin-4-yl)amino)phenyl)acrylamide], for which the EC50 in experiment [2] and in experiment [3] was < 100 nM throughout. The concentration for half-maximal inhibition (IC50) – broadly, the midpoint of a concentration-inhibition curve – in experiment [4] is < 100 nM.

Regarding `C=CC(=O)Nc1cc(C)ccc1Nc1nc(Nc2cc(OC)nc(N3CCC3)c2)ncc1C(F)(F)F` [Compound I-329, N-(2-((2-((2-(azetidin-1-yl)-6-methoxypyridin-4-yl)amino)-5-(trifluoromethyl)pyrimidin-4-yl)amino)-5-methylphenyl)acrylamide], the EC50 in experiment [1] is 101 to 500 nM; in experiment [2], 101 to 500 nM; in experiment [3], > 1000 nM.

On to `C=CC(=O)Nc1cc(C)ccc1Nc1nc(N[C@@H]2CCCN(S(=O)(=O)C=C)C2)ncc1C(F)(F)F` [Compound I-278, (R)—N-(5-Methyl-2-((5-(trifluoromethyl)-2-((1-(vinylsulfonyl)piperidin-3-yl)amino)pyrimidin-4-yl)amino)phenyl)acrylamide], for which the EC50 in experiment [1], in experiment [2] and in experiment [3] was > 1000 nM in each case.

Turning to `C=CC(=O)Nc1cc(C)ccc1Nc1nc(Nc2cnnc(OC)c2)ncc1C(F)(F)F` [Compound I-335, N-(2-((2-((6-methoxypyridazin-4-yl)amino)-5-(trifluoromethyl)pyrimidin-4-yl)amino)-5-methylphenyl)acrylamide], the EC50 in experiment [1], in experiment [2] and in experiment [3] was 501 to 999 nM each time.

Turning to `C=CC(=O)Nc1cc(OCC(=O)N2CCN(C(C)=O)CC2)ccc1Nc1nc(Nc2cc(OC)ncc2C)ncc1C(F)(F)F` [Compound I-404, N-(5-(2-(4-acetylpiperazin-1-yl)-2-oxoethoxy)-2-((2-((2-methoxy-5-methylpyridin-4-yl)amino)-5-(trifluoromethyl)pyrimidin-4-yl)amino)phenyl)acrylamide], the EC50 in experiment [1], in experiment [2] and in experiment [3] was 101 to 500 nM each time.

As for `CCC(=O)Nc1cc(C)ccc1Nc1nc(Nc2cc(OC)ncc2C)ncc1C(F)(F)F` [Compound I-352, N-(2-((2-((2-methoxy-5-methylpyridin-4-yl)amino)-5-(trifluoromethyl)pyrimidin-4-yl)amino)-5-methylphenyl)propionamide], the EC50 in experiment [1] and in experiment [3] was > 1000 nM throughout.

In the case of `C=CC(=O)Nc1cc(C)ccc1Nc1nc(Nc2cnnc(Cl)c2)ncc1C(F)(F)F` [Compound I-331, N-(2-((2-((6-chloropyridazin-4-yl)amino)-5-(trifluoromethyl)pyrimidin-4-yl)amino)-5-methylphenyl)acrylamide], the EC50 in experiment [1] was > 1000 nM; in experiment [3], 501 to 999 nM.
